Assay results as given in PubChem BioAssay AID1117319 (Southern Research Institute, 2015).
Records with an inconclusive call do not appear.

Target: Virion infectivity factor (Human immunodeficiency virus type 1 group M subtype B (isolate BH10)) + Virion infectivity factor (Human immunodeficiency virus type 1 group M subtype B (isolate BRU/LAI)) + Virion infectivity factor (Human immunodeficiency virus type 1 group M subtype B (isolate PCV12)) + Virion infectivity factor (Human immunodeficiency virus type 1 group M subtype B (isolate HXB2)) + DNA dC->dU-editing enzyme APOBEC-3G (Homo sapiens) (UniProt P69720+P69721+P69722+P69723+Q9HC16)
Test: HIV-1 Vif–A3G interaction blockers – biochemical, TR-FRET, GST-Vif 1-94, biotin-A3G peptide, dose response retest, primary screen (AID 1117319);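 also: Vif residues 1-94 fused to GST binding biotinylated APOBEC3G peptide 110-148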
Details: TR-FRET GST-Vif / biotin-A3G peptide binding

| Compound | IC50 |
| --- | --- |
| Cc1nc2cc(-c3ccsc3-n3c(C)ccc3C)[nH]n2c(=O)c1Cl | 2.92 µM |
| Cc1cc(O)c(C(C)C)cc1N=Cc1ccc([N+](=O)[O-])cc1 | 19 µM |
| COc1ccc(NC(=O)N2c3ccc(OC)cc3C(C)=CC2(C)C)cc1 | 3.27 µM |
| CC1=CC(C)(C)Nc2ccc(OC(=O)c3cccnc3)cc21 | 30.4 µM |
| O=C(COC(=O)c1cc(-c2ccco2)nc2ccccc12)NCc1ccc2c(c1)OCO2 | 12.5 µM |
| Oc1cc2c(cc1O)[C@@H](c1ccccc1)CNCC2 | 48.1 µM |
| O=C1NC(=S)NC1=Cc1ccco1 | 11.3 µM |
| Cc1onc(-c2ccccc2Cl)c1C(=O)NCc1ccco1 | 1.08 µM |
| COc1ccc(CCNC(=O)c2ccc3nc(-c4ccco4)c(-c4ccco4)nc3c2)cc1OC | 0.45 µM |
| CCc1cc(=O)oc2cc(C)c(CN3CCCC3)c(O)c12 | 4.07 µM |
| Cc1ccn2cc(-c3nonc3C)cc2c1 | 22.5 µM |
| COc1cccc(-c2nn(C)c3sc(C(=O)Nc4ccc5c(c4)OCCO5)cc23)c1 | 51.6 µM |
| CCc1ccc(NC(=O)N(CCN2CCOCC2)Cc2ccc3c(c2)CCCN3CC)cc1 | 88.1 µM |
| Cc1ccc(-c2nnn(CC(=O)N(c3ccc(F)cc3)C(C(=O)NC3CCCC3)c3ccco3)n2)o1 (configuration not stated) | 85.8 µM |
| CCOC(=O)COc1nc(-c2ccco2)cc(-c2ccco2)c1C#N | 5.83 µM |
| C/C(=N\Nc1ccc([N+](=O)[O-])cc1[N+](=O)[O-])c1cc2c(ccc3ccccc32)oc1=O | 2.92 µM |
| CC(=C\c1ccco1)/C=C1/SC(=S)N(CC(=O)O)C1=O | 14.7 µM |
| Cc1ccnc(NS(=O)(=O)c2ccc(NC(=O)Cc3cccs3)cc2)n1 | 8.35 µM |
| CCOC(=O)Cn1nnnc1C(C(C)C)N(Cc1cc2c(C)cc(C)cc2[nH]c1=O)C1CCCC1 (configuration not stated) | 46 µM |
| O=C(COC(=O)Cc1ccc(Cl)cc1)NCc1ccco1 | 7.37 µM |
| O=C1NC(=S)N(c2ccc(F)cc2)C(=O)/C1=C\c1ccoc1 | 18.8 µM |

| Compound | IC50 |
| --- | --- |
| Cc1ccc(-c2ccc(CCC(=O)O)n2NC(N)=S)cc1 | 11.5 µM |
| CCc1ccc(N2C(=O)NC(=O)/C(=C\C=C\c3ccco3)C2=O)cc1 | 7.09 µM |
| CCOC(=O)C1=C(C)N=c2s/c(=C/c3ccco3)c(=O)n2C1c1cccc(OC)c1 (configuration not stated) | 33 µM |
| CN(C)c1nc(N)nc(CSc2nc3c(c(=O)n(C)c(=O)n3C)n2Cc2ccccc2F)n1 | 60.9 µM |
| O=C(O)C1Cc2ccccc2N2CCCC12 (configuration not stated) | 15.2 µM |
| CC(=O)c1cccc(NC(=O)c2cnn3ccccc23)c1 | 77.6 µM |
| CSc1nc(NCCOCCO)c2sc3nc(-c4ccco4)c4c(c3c2n1)CCC4 | 1.41 µM |
| CC(=O)c1ccc(NC(=O)c2ccc3nc(-c4ccco4)c(-c4ccco4)nc3c2)cc1 | 1.38 µM |
| CS(=O)(=O)c1ccc2c(c1)SC1=NC(=O)/C(=C/c3ccco3)C(=N)N12 | 6.32 µM |
| O=C1/C(=C\c2ccco2)SC(=S)N1Cc1ccccc1 | 3.56 µM |
| O=C(O)CC(C(=O)O)N1C(=O)/C(=C/c2ccc(-c3nc4ccccc4s3)o2)SC1=S (configuration not stated) | 6.36 µM |
| O=c1cc(-c2ccc(O)cc2)oc2c(O)c(O)c(O)c(O)c12 | 22.1 µM |
| COc1cccc(-c2cn3nc4c(nc3n2)CCCC4)c1 | 17.6 µM |
| O=C1C(=Cc2ccco2)CCCC1=Cc1ccco1 | 12.1 µM |
| CCOc1ccc(NC(=O)CCS(=O)(=O)c2ccc(Br)cc2)cc1 | 14.2 µM |
| O=C(O)CCCNc1cc(N2CCC3(CC2)OCCO3)c2noc3c2c1C(=O)c1ccccc1-3 | 0.97 µM |
| CC(C)(Oc1ccc(Cl)cc1)C(=O)NCc1ccco1 | 43.1 µM |
| O=C(NCc1ccccn1)c1ccc2nc(-c3ccco3)c(-c3ccco3)nc2c1 | 0.45 µM |
| CC1=CC2(O)OCCN(CCO)C2=CC1=O (configuration not stated) | 7.05 µM |
| O=C(O)/C(=C/c1ccco1)NC(=O)c1ccccc1 | 19.4 µM |
| COCCCNC(=O)/C(C#N)=C/c1ccc(OCC(=O)O)c(OC)c1 | 4.12 µM |

| Compound | IC50 |
| --- | --- |
| O=S(=O)(c1ccc(NC(=S)N/N=C/c2ccc(O)c(O)c2)cc1)N1CCOCC1 | 7.53 µM |
| O=c1cc(-c2ccc(O)c(O)c2)oc2cc(O)c(C3OC(CO)C(O)C(O)C3O)c(O)c12 (configuration not stated) | 12.7 µM |
| C=C(C)C(=O)Nc1ccc2c(c1)OCCOCCOCCO2 | 1.89 µM |
| CC1=Nc2cccc3cccc(c23)N1 | 0.53 µM |
| O=C1OC(c2ccc3ccccc3c2O)(c2ccc3ccccc3c2O)c2ccccc21 | 9.39 µM |
| O=C1NC(=S)N(c2ccccc2)C(=O)/C1=C/c1ccco1 | 9.42 µM |
| N#C/C(=C/c1ccc(Br)o1)C(N)=S | 3.87 µM |
| Nc1ccc(N2CCN(CCCCN3C(=O)C4CCCN4C3=O)CC2)cc1 (configuration not stated) | 1.34 µM |
| COc1ccc(NC(=O)Nc2cccs2)cc1OC | 34.5 µM |
| O=[N+]([O-])c1ccccc1NC(=S)N/N=C/c1ccc(O)c(O)c1 | 4.06 µM |
| CCOC(=O)C1=C(O)/C(=C\c2ccc(CNC(=O)C(=O)Nc3ccccc3)o2)N=C1C | 1.86 µM |
| CCCSC1=N/C(=C\c2ccc([N+](=O)[O-])o2)C(=O)S1 | 12.9 µM |
| CS(=O)(=O)c1ccc(C(=O)Nc2nc(-c3ccco3)c(-c3ccco3)s2)cc1 | 22.1 µM |
| CC(/C=C1\SC(=S)N(CCCC(=O)Nc2ccc(C(=O)O)c(O)c2)C1=O)=C\c1ccccc1 | 5.1 µM |
| Cc1cc(Cl)c(S(=O)(=O)NCC2CCCO2)cc1OCC(=O)NC1CCCCC1 (configuration not stated) | 77.1 µM |
| Cc1cccc(C)c1NC(=O)COC(=O)c1cc(-c2cccnc2)nc2ccccc12 | 41.4 µM |
| O=C(c1cccc(-n2cccc2)c1)N1CCN(S(=O)(=O)c2ccccc2)CC1 | 17.3 µM |
| CSc1nnc(-c2ccco2)c(-c2ccco2)n1 | 1.49 µM |
| COc1ccc(NC(=O)CC2Nc3cccc4cccc(c34)NC2=O)cc1 (configuration not stated) | 1.21 µM |
| C/C(N)=C(/C#N)C(=O)CSc1nnc(NC(C)C)s1 | 9.7 µM |
| O=C(COC(=O)c1c2c(nc3ccccc13)/C(=C\c1ccco1)CC2)NC1CCCC1 | 3.67 µM |

| Compound | IC50 |
| --- | --- |
| COc1cc(OC)c2c(c1O)OC(c1ccccc1)CC2=O (configuration not stated) | 4.82 µM |
| N#Cc1ccc(N2CCN(C(=O)c3cccc(F)c3)CC2)c(F)c1 | 91 µM |
| CCC(C)[C@@H](C(=O)Nc1ccc2c(c1)OCO2)N1Cc2ccccc2C1=O (some centres not stated) | 98.4 µM |
| NNc1ccc([N+](=O)[O-])c2[nH][nH]c(=O)c12 | 1.93 µM |
| CC1(C)CC(Nc2ccc(Nc3ccccc3)cc2)CC(C)(C)N1 | 7.13 µM |
| CN1C(=O)/C(=C/c2cccn2-c2ccc3ccccc3c2)C(=O)NC1=S | < 8.17 µM |
| CC(=C/c1ccco1)/C=N/NC(=O)Cc1cccn1C | 1.91 µM |
| O=[N+]([O-])c1cc2no[n+]([O-])c2cc1N1CCCCC1 | 7.67 µM |
| COc1ccc(NC2CS(=O)(=O)CC2NCc2ccco2)cc1 (configuration not stated) | 62.7 µM |
| Cc1ccc2c(c1)c1ccc3c(c1n2C)C(=O)C=CC3=O | 3.94 µM |
| COC(=O)Cn1ncn2c(cc3oc(C)cc32)c1=O | 71.6 µM |
| O=C(NCc1ccccc1Cl)c1csc2c1CCCCC2 | 8.35 µM |
| CCC1=NN2C(=N)/C(=C\c3cccn3-c3cccc(Cl)c3)C(=O)N=C2S1 | 94.9 µM |
| Cc1nn(-c2ccccn2)c2c1C(=O)C(Br)CC2 (configuration not stated) | 3.41 µM |
| COc1cc(CN2CCNC(=O)C2CC(=O)N(Cc2nccn2C)C(C)C)cc(OC)c1 (configuration not stated) | 28.3 µM |
| Cc1ccc(N(CC(=O)NCCSCc2ccco2)S(=O)(=O)c2ccc(F)cc2)cc1 | 10.9 µM |
| COc1ccc(C(=O)N/N=C/C23CC[C@@H](O)CC2(O)CC[C@@H]2[C@@H]3CCC3(C)C(C4=CC(=O)OC4)CCC23O)cc1 (some centres not stated) | 86.3 µM |
| O=S(=O)(O)c1cc(Cl)cc(N=Nc2ccc(O)cc2O)c1O | 49.4 µM |
| C=CCN=c1scc(C)n1/N=C/c1ccc(O)c(O)c1 | 15.4 µM |
